Measurements reported in ChEMBL document CHEMBL4699579, “A Peptidyl Inhibitor that Blocks Calcineurin-NFAT Interaction and Prevents Acute Lung Injury” (J Med Chem, 2020).
Non-standard residues stand in square brackets, D forms with d. Residues, ends and D or L forms follow the SMILES beside them. *: point of attachment. X5 = O=C(O)c1cc(NC(=S)*)ccc1-c1c2ccc(=O)cc-2oc2cc(O)ccc12; Benzoyl(2,3,4,5,6-F5) = O=C(c1c(F)c(F)c(F)c(F)c1F)*; Benzoyl(2,3-Cl2) = O=C(c1cccc(Cl)c1Cl)*; 2Nal = N[C@@H](Cc1ccc2ccccc2c1)C(=O)O; Tle = CC(C)(C)[C@H](N)C(=O)O; Bz = O=C(c1ccccc1)*

Experiments:
[1] = Binding affinity to GST-tagged Calcineurin (unknown origin) incubated for 1 hr by fluorescence polarization assay; parameters: species or system Homo sapiens
[2] = Drug uptake in cytosol in human HeLa cells assessed as cytosolic delivery efficiency at 5 uM incubated for 2 hrs by floe cytometry relative to control; format: ADME, subcellular

With `CC[C@H](C)[C@H](NC(=O)[C@@H](NC(=O)c1c(F)c(F)c(F)c(F)c1F)C(C)(C)C)C(=O)N[C@H](C(=O)N[C@H](C(=O)N[C@H](C(=O)NCC(=O)N1CCC[C@H]1C(=O)N[C@@H](Cc1c[nH]cn1)C(=O)N[C@@H](CCC(=O)O)C(=O)N[C@@H](CCC(=O)O)C(=O)N[C@@H](Cc1ccc(O)cc1)C(=O)N[C@@H](CCCCNC(=S)Nc1ccc(-c2c3ccc(=O)cc-3oc3cc(O)ccc23)c(C(=O)O)c1)C(N)=O)[C@@H](C)O)[C@@H](C)CC)C(C)(C)C` ({Benzoyl(2,3,4,5,6-F5)}-[Tle]I[Tle]ITGPHEEYK(X5)-NH2) the Kd [1] was 77 nM.
For `CC[C@H](C)[C@H](NC(=O)[C@@H](NC(=O)c1ccccc1)C(C)(C)C)C(=O)N[C@H](C(=O)N[C@H](C(=O)N[C@H](C(=O)NCC(=O)N1CCC[C@H]1C(=O)N[C@@H](Cc1c[nH]cn1)C(=O)N[C@@H](CCC(=O)O)C(=O)N[C@@H](CCC(=O)O)C(=O)N[C@@H](Cc1ccc(O)cc1)C(=O)N[C@@H](CCCCNC(=S)Nc1ccc(-c2c3ccc(=O)cc-3oc3cc(O)ccc23)c(C(=O)O)c1)C(N)=O)[C@@H](C)O)[C@@H](C)CC)C(C)(C)C` (Bz-[Tle]I[Tle]ITGPHEEYK(X5)-NH2), the Kd [1] was 224 nM.
In the case of `N=C(N)NCCC[C@@H]1NC(=O)[C@H](Cc2ccc3ccccc3c2)NC(=O)[C@@H](Cc2ccccc2)NC(=O)[C@H](CCC(N)=O)NC(=O)[C@@H](CCCNC(=N)N)NC(=O)[C@H](CCCNC(=N)N)NC(=O)[C@@H](CCCNC(=N)N)NC1=O` (cyclo([2Nal]R[dR]R[dR]Q[dF])), the Drug uptake [2] is reported as 62%.
In the case of `CC[C@H](C)[C@H](NC(=O)[C@@H](NC(=O)c1cccc(Cl)c1Cl)C(C)(C)C)C(=O)N[C@H](C(=O)N[C@H](C(=O)N[C@H](C(=O)NCC(=O)N1CCC[C@H]1C(=O)N[C@@H](Cc1c[nH]cn1)C(=O)N[C@@H](CCC(=O)O)C(=O)N[C@@H](CCC(=O)O)C(=O)N[C@@H](Cc1ccc(O)cc1)C(=O)N[C@@H](CCCCNC(=S)Nc1ccc(-c2c3ccc(=O)cc-3oc3cc(O)ccc23)c(C(=O)O)c1)C(N)=O)[C@@H](C)O)[C@@H](C)CC)C(C)(C)C` ({Benzoyl(2,3-Cl2)}-[Tle]I[Tle]ITGPHEEYK(X5)-NH2), the Kd [1] is reported as 41 nM.
Compound `CC[C@H](C)[C@H](NC(=O)[C@@H](NC(=O)c1cccc(Cl)c1Cl)C(C)(C)C)C(=O)N[C@H](C(=O)N[C@H](C(=O)N[C@H](C(=O)N[C@@H](CCC(N)=O)C(=O)N[C@@H](Cc1c[nH]cn1)C(=O)N[C@H](CC(C)C)C(=O)N[C@@H](CO)C(=O)NCCC(=O)N[C@@H](CCCCNC(=S)Nc1ccc(-c2c3ccc(=O)cc-3oc3cc(O)ccc23)c(C(=O)O)c1)C(N)=O)[C@@H](C)O)[C@@H](C)CC)C(C)(C)C` has a Kd [1] of 9.1 nM.
